Measured values from patent US20220040324A1, “COMBINATION OF ANTIBODY-DRUG CONJUGATE AND KINASE INHIBITOR” (DAIICHI SANKYO COMPANY, LIMITED, priority 2018, published 2022).

Tests used:
[1] = test system: COLO201 cells; assay: Antitumor test (3): nude mice with subcutaneously transplanted COLO201 cells; format: in vivo, human; settings: single administration; regorafenib 10 mg/kg orally once a day, five times a week, three weeks
Description: (§1) Mouse: 5 to 6-week-old BALB/c nude mice (Charles River Laboratories Japan, Inc.) were subjected to experiment.
(§2) Assay and calculation expression: In all of the studies, the major axis and minor axis of a tumor were measured twice a week by using an electronic digital caliper (CD15-CX, Mitutoyo Corp.), and the tumor volume (mm^3) was calculated. The calculation expression is as shown below.
(§3) Tumor volume (mm^3)=1/2×Major axis (mm)×[Minor axis (mm)]^2
(§4) Everolimus was suspended in 30% propylene glycol and 5% Tween 80, and orally administered at a liquid volume of 10 mL/kg. Taselisib was suspended in 0.5% methyl cellulose and 0.2% Tween 80, and orally administered at a liquid volume of 10 mL/kg. Abemaciclib was suspended in 1% hydroxyethyl cellulose and 0.1% antifoam/25 mM phosphate buffer, pH2, and orally administered at a liquid volume of 10 mL/kg.

[2] = test system: MDA-MB-453 cells; assay: Antitumor test (1): nude mice with subcutaneously transplanted MDA-MB-453 cells; format: in vivo, human; settings: single administration, five times a week
Description: as §1, §2, §3, §4
Everolimus was administered once a day, five times a week, at a dose of 5 mg/kg for 3 weeks. Taselisib was administered once a day, five times a week, at a dose of 5 mg/kg for 3 weeks. Abemaciclib was administered once a day, five times a week, at a dose of 30 mg/kg for 2 weeks.

[3] = test system: NCI-N87 cells; assay: Antitumor test (6): nude mice with subcutaneously transplanted NCI-N87 cells; format: in vivo, human; settings: single administration; tucatinib 100 mg/kg once a day, five times a week, two weeks
Description: as §1, §2, §3, §4

[4] = test system: MDA-MB-453 cells; assay: Antitumor test (5): nude mice with subcutaneously transplanted MDA-MB-453 cells; format: in vivo, human; settings: single administration; tucatinib 100 mg/kg once a day, five times a week, three weeks
Description: as §1, §2, §3, §4

[5] = test system: KPL-4 cells; assay: Antitumor test (4): nude mice with subcutaneously transplanted KPL-4 cells; format: in vivo, human; settings: single administration; tucatinib 100 mg/kg orally once a day, five times a week, two weeks
Description: as §1, §2, §3, §4

[6] = test system: MDA-MB-453 cells; assay: Antitumor test (9): nude mice with subcutaneously transplanted MDA-MB-453 cells; format: in vivo, human; settings: single administration
Description: as §1, §2, §3
Palbociclib was suspended in 0.5% methyl cellulose, and orally administered once a day, five times a week, at a dose of 50 mg/kg (a liquid volume of 10 mL/kg) for three weeks from Day 0.

[7] = test system: MDA-MB-453 cells; assay: Antitumor test (10): nude mice with subcutaneously transplanted MDA-MB-453 cells; format: in vivo, human; settings: single administration
Description: as §1, §2, §3
MDA-MB-453 cells, a human breast cancer cell line, obtained from ATCC were suspended in Matrigel basement membrane matrix, and 1×10^7 cells were subcutaneously transplanted to the right flank of each female nude mouse, and the mice were randomly grouped 7 days after the transplantation (Day 0). The antibody-drug conjugate (2) was diluted with ABS buffer, and intravenously administered to the tail vein of each mouse once a week at a dose of 1 mg/kg (a liquid volume of 10 mL/kg) for three weeks (Days 0, 7, 14). Alpelisib was suspended in 0.5% methyl cellulose, and orally administered once a day, five times a week, at a dose of 25 mg/kg (a liquid volume of 10 mL/kg) for three weeks from Day 0. Single administration groups and a combined administration group with the antibody-drug conjugate (2) and alpelisib, and an ABS administration group as a control group were established.

[8] = test system: KPL-4 cells; assay: Antitumor test (7): nude mice with subcutaneously transplanted KPL-4 cells; format: in vivo, human; settings: single administration
Description: as §1, §2, §3
KPL-4 cells, a human breast cancer cell line, obtained from Dr. Junichi Kurebayashi, Kawasaki Medical School (British Journal of Cancer. (1999)79 (5/6). 707-717) were suspended in physiological saline, and 1.5×10^7 cells were subcutaneously transplanted to the right flank of each female nude mouse, and the mice were randomly grouped 17 days after the transplantation (Day 0). The antibody-drug conjugate (2) was diluted with ABS buffer, and intravenously administered to the tail vein of each mouse once a week at a dose of 10 mg/kg (a liquid volume of 10 mL/kg) for three weeks (Days 0, 7, 14). Neratinib was suspended in 0.5% methyl cellulose, and orally administered once a day, five times a week, at a dose of 20 mg/kg (a liquid volume of 10 mL/kg) for two weeks. Single administration groups and a combined administration group with the antibody-drug conjugate (2) and neratinib, and an ABS administration group as a control group were established.

[9] = test system: NCI-N87 cell line; format: cell-based, human; settings: 6 days culture, >0 synergistic, 0 additive, <0 antagonistic
Description: The human gastric cancer cell line NCI-N87 purchased from ATCC was used for evaluation. To a 1536-well cell culture plate, erlotinib (hydrochloride), poziotinib, mubritinib, brigatinib, or BIBF1120 prepared with dimethyl sulfoxide (DMSO) to concentrations of 2 mM, 400 μM, 80 μM, 16 μM, 3.2 μM, and 640 nM, or DMSO was added at 25 nL/well. […] Subsequently, NCI-N87 cells suspended with an RPMI1640 Medium containing 10% fetal bovine serum to a concentration of 4×10^4 cells/mL were seeded at 2.5 μL/well, and cultured at 37° C. under 5% CO2 for 6 days.
(§5) After culturing, a solution obtained by diluting CellTiter-Glo 2.0 Assay (Promega Corporation) with an equivalent amount of Glo Lysis buffer, 1×(Promega Corporation) was added at 2 μL/well, and incubation was performed at room temperature for 1 hour, and luminescence intensity was then measured for each well.
(§6) Cell growth inhibition rate (%) was calculated by using the following calculation expression.
(§7) T: Mean luminescence intensity of wells with specimen B: Mean luminescence intensity of wells with DMSO and medium C: Mean luminescence intensity of wells with DMSO and cells
(§8) Sigmoid fitting with Genedata Screener Analyzer Version 14 (Genedata AG, hereinafter referred to as Screener) was performed for concentration-dependent transition of cell growth inhibition rates under each of combined use conditions.

[10] = test system: KPL-4 cell line; format: cell-based, human; settings: 6 days culture, >0 synergistic, 0 additive, <0 antagonistic
Description: as §6, §7, §8

[11] = test system: EBC-1 cell line; format: cell-based, human; settings: combined with mubritinib, 6 days culture, >0 synergistic, 0 additive, <0 antagonistic
Description: as §6, §7, §8

[12] = test system: BxPC-3 cell line; format: cell-based, human; settings: combined with mubritinib, 6 days culture, >0 synergistic, 0 additive, <0 antagonistic
Description: as §6, §7, §8, §5

[13] = test system: 786-0 cells; assay: Antitumor test (8): nude mice with subcutaneously transplanted 786-0 cells; format: in vivo, human; settings: single administration
Description: as §1, §2, §3
Suspended in 100% Matrigel were 786-0 cells, a human kidney cancer cell line, purchased from ATCC, and 4×10^6 cells were subcutaneously transplanted to the right flank of each female nude mouse, and the mice were randomly grouped 19 days after the transplantation (Day 0). […] Cabozantinib was administered once a day, five times a week, 20 times in total, at a dose of 40 mg/kg.

[14] = test system: JIMT-1 cells; assay: Antitumor test (2): nude mice with subcutaneously transplanted JIMT-1 cells; format: in vivo, human; settings: single administration; everolimus 5 mg/kg once a day, five times a week, seven times in total
Description: as §1, §2, §3, §4

Molecule: CNC(=O)c1cc(Oc2ccc(NC(=O)Nc3ccc(Cl)c(C(F)(F)F)c3)c(F)c2)ccn1 [regorafenib]
- tumor growth inhibition (TGI) [1]: 81%

Molecule: Cc1nc(-c2cn3c(n2)-c2ccc(-c4cnn(C(C)(C)C(N)=O)c4)cc2OCC3)n(C(C)C)n1 [taselisib]
- tumor growth inhibition (TGI) ([2]; taselisib 5 mg/kg orally once a day, 3 weeks): 67%

Molecule: Cc1cc(Nc2ncnc3ccc(NC4=NC(C)(C)CO4)cc23)ccc1Oc1ccn2ncnc2c1 [tucatinib]
- tumor growth inhibition (TGI) [3]: 65%
- tumor growth inhibition (TGI) [4]: 36%
- tumor growth inhibition (TGI) [5]: 78%

Molecule: antibody-drug conjugate (2): anti-HER3 antibody (SEQ ID NO: 3 and 4) conjugated to the drug-linker via thioether bond; DAR 7 to 8
- tumor growth inhibition (TGI) ([6]; antibody-drug conjugate (2) 1 mg/kg iv once a week, three weeks (Days 0, 7, 14), grouped 11 days after transplantation): 54%
- tumor growth inhibition (TGI) ([7]; antibody-drug conjugate (2) 1 mg/kg iv once a week, three weeks (Days 0, 7, 14), grouped 7 days after transplantation): 68%
- tumor growth inhibition (TGI) ([8]; antibody-drug conjugate (2) 10 mg/kg iv once a week, three weeks (Days 0, 7, 14)): 67%

Molecule: CCN1CCN(Cc2ccc(Nc3ncc(F)c(-c4cc(F)c5nc(C)n(C(C)C)c5c4)n3)nc2)CC1 [abemaciclib]
- tumor growth inhibition (TGI) ([2]; abemaciclib 30 mg/kg orally once a day, 2 weeks): 68%

Molecule: CC[C@@]1(O)C(=O)OCc2c1cc1n(c2=O)Cc2c-1nc1cc(F)c(C)c3c1c2[C@@H](NC(=O)CO)CC3 [Compound (1)]
- Synergy Score, combination with BIBF1120 ([9]; combined with BIBF1120 (nintedanib)): −0.44
- Synergy Score, combination with Mubritinib ([9]; combined with mubritinib): −0.45
- Synergy Score, combination with Poziotinib ([9]; combined with poziotinib): −0.53
- Synergy Score, combination with Brigatinib ([10]; combined with brigatinib): −0.02
- Synergy Score, combination with Poziotinib ([10]; combined with poziotinib): −0.38
- Synergy Score, combination with Mubritinib [11]: −0.60
- Synergy Score, combination with Mubritinib [12]: −0.40

Molecule: COc1cc2nccc(Oc3ccc(NC(=O)C4(C(=O)Nc5ccc(F)cc5)CC4)cc3)c2cc1OC [cabozantinib]
- tumor growth inhibition (TGI) ([13]; cabozantinib 40 mg/kg once a day, five times a week, 20 times in total): 67%

Molecule: CCOc1cc2ncc(C#N)c(Nc3ccc(OCc4ccccn4)c(Cl)c3)c2cc1NC(=O)/C=C/CN(C)C [neratinib]
- tumor growth inhibition (TGI) ([8]; neratinib 20 mg/kg orally once a day, five times a week, two weeks, day of effect determination): 84%

Molecule: CC(=O)c1c(C)c2cnc(Nc3ccc(N4CCNCC4)cn3)nc2n(C2CCCC2)c1=O [palbociclib]
- tumor growth inhibition (TGI) ([6]; palbociclib 50 mg/kg orally once a day, five times a week, three weeks from Day 0): 72%

Molecule: Cc1nc(NC(=O)N2CCC[C@H]2C(N)=O)sc1-c1ccnc(C(C)(C)C(F)(F)F)c1 [alpelisib]
- tumor growth inhibition (TGI) ([7]; alpelisib 25 mg/kg orally once a day, five times a week, three weeks from Day 0): 56%

Molecule: CO[C@H]1C[C@@H]2CC[C@@H](C)[C@@](O)(O2)C(=O)C(=O)N2CCCC[C@H]2C(=O)O[C@H]([C@H](C)C[C@@H]2CC[C@@H](OCCO)[C@H](OC)C2)CC(=O)[C@H](C)/C=C(\C)[C@@H](O)[C@@H](OC)C(=O)[C@H](C)C[C@H](C)/C=C/C=C/C=C/1C [everolimus]
- tumor growth inhibition (TGI) [14]: 52%
- tumor growth inhibition (TGI) ([2]; everolimus 5 mg/kg orally once a day, 3 weeks, BALB/c nude mice, day of effect determination): 64%

B1: antibody-drug conjugate (3): anti-CDH6 antibody (SEQ ID NO: 9 residues 20-471, SEQ ID NO: 10 residues 21-233) conjugated to the drug-linker via thioether bond; DAR 7 to 8 (conjugate, chains of the INN, looked up)
VH: EVQLVQSGAEVKKPGASVKVSCKASGYTFTRNFMHWVRQAPGQGLEWMGWIYPGDGETEYAQKFQGRVTITADTSTSTAYMELSSLRSEDTAVYYCARGVYGGFAGGYFDFWGQGTLVTVSS
VL: DIQMTQSPSSLSASVGDRVTITCKASQNIYKNLAWYQQKPGKAPKLLIYDANTLQTGVPSRFSGSGSGSDFTLTISSLQPEDFATYFCQQYYSGWAFGQGTKVEIK
modifications: deruxtecan-type drug-linker, DAR 7-8
- tumor growth inhibition (TGI) ([13]; antibody-drug conjugate (3) 10 mg/kg iv on Day 0): 71%
